pIC50: −log10 of the molar value. Active and inactive are the calls of the source. No cut-off for these calls is given here.
How the values were obtained:
HUVEC [1] = test: Cytotoxicity against HUVEC assessed as reduction in cell viability after 70 hrs by alamar blue assay; type: cell-based; conditions: Homo sapiens
HBL-100 [2] = test: Antiproliferative activity against human HBL100 cells after 70 hrs by alamar blue assay; type: cell-based; conditions: HBL-100, 70 h
BEAS-2B [3] = test: Antiproliferative activity against human BEAS2B cells after 70 hrs by alamar blue assay; type: cell-based
HUVEC [4] = test: Antiproliferative activity against HUVEC after 70 hrs by alamar blue assay; type: cell-based; conditions: Homo sapiens
A498 [5] = test: Disruption of microtubule network in human A498 cells at 5 times antiproliferative IC50 after 1 to 12 hrs by immunofluorescence assay; type: cell-based
[6] = Ratio of IC50 for antiproliferative activity against human MIAPaCa2 cells to IC50 for cytotoxicity against human MIAPaCa2 cells; parameters: species or system MIA PaCa-2
[7] = Ratio of IC50 for antiproliferative activity against human HBL100 cells to IC50 for cytotoxicity against human HBL100 cells; type: cell-based, HBL-100; conditions: read-out: Ratio IC50
BEAS-2B [8] = test: Cytotoxicity against human BEAS2B cells assessed as reduction in cell viability after 70 hrs by alamar blue assay; type: cell-based
MIA PaCa-2 [9] = test: Cytotoxicity against human MIAPaCa2 cells assessed as reduction in cell viability after 70 hrs by alamar blue assay; type: cell-based; conditions: MIA PaCa-2, 70 h
[10] = Ratio of IC50 for antiproliferative activity against human BEAS2B cells to IC50 for cytotoxicity against human BEAS2B cells; type: cell-based, BEAS-2B; conditions: read-out: Ratio IC50
HBL-100 [11] = test: Cytotoxicity against human HBL100 cells assessed as reduction in cell viability after 70 hrs by alamar blue assay; type: cell-based; conditions: HBL-100, 70 h
Homo sapiens = species on record: Homo sapiens; test: Disruption of microtubule network in human MIAPaCa2 cells at 5 times antiproliferative IC50 after 1 to 12 hrs by immunofluorescence assay; type: cell-based
A549 [12] = test: Disruption of microtubule network in human A549 cells at 5 times antiproliferative IC50 after 1 to 12 hrs by immunofluorescence assay; type: cell-based
MIA PaCa-2 [13] = test: Antiproliferative activity against human MIAPaCa2 cells after 70 hrs by alamar blue assay; type: functional, cell-based; conditions: MIA PaCa-2, 70 h
[14] = Induction of supercoiled plasmid complementary DNA3 cleavage at 100 uM after 1 hr by gel electrophoresis method
[15] = Selectivity ratio of IC50 for antiproliferative activity against human A549 cells under dark condition to IC50 for antiproliferative activity against human A549 cells under 0.6 J/cm2 light irradiation; type: functional
A498 [16] = test: Antiproliferative activity against human A498 cells preincubated for 4 hrs followed by 0.6 J/cm2 light irradiation for 10 mins and measured after 70 hrs by alamar blue assay; type: functional, cell-based; conditions: A498, light or radiation study
MIA PaCa-2 [17] = test: Antiproliferative activity against human MIAPaCa2 cells preincubated for 4 hrs followed by 0.6 J/cm2 light irradiation for 10 mins and measured after 70 hrs by alamar blue assay; type: functional, cell-based; conditions: MIA PaCa-2, light or radiation study
A498 [18] = test: Antiproliferative activity against human A498 cells after 70 hrs by alamar blue assay; type: functional, cell-based; conditions: A498, 70 h
MDA-MB-231 [19] = test: Antiproliferative activity against human MDA-MB-231 cells after 70 hrs by alamar blue assay; type: functional, cell-based; conditions: MDA-MB-231, 70 h
[20] = Selectivity ratio of IC50 for antiproliferative activity against human A498 cells under dark condition to IC50 for antiproliferative activity against human A498 cells under 0.6 J/cm2 light irradiation; type: functional
[21] = Selectivity ratio of IC50 for antiproliferative activity against human MIAPaCa2 cells under dark condition to IC50 for antiproliferative activity against human MIAPaCa2 cells under 0.6 J/cm2 light irradiation; type: functional, MIA PaCa-2
Caco-2 [22] = test: Antiproliferative activity against human Caco2 cells preincubated for 4 hrs followed by 0.6 J/cm2 light irradiation for 10 mins and measured after 70 hrs by alamar blue assay; type: functional, cell-based; conditions: Caco-2, light or radiation study
PC-3 [23] = test: Antiproliferative activity against human PC3 cells after 70 hrs by alamar blue assay; type: functional, cell-based; conditions: PC-3, 70 h
[24] = Selectivity ratio of IC50 for antiproliferative activity against human Caco2 cells under dark condition to IC50 for antiproliferative activity against human Caco2 cells under 0.6 J/cm2 light irradiation; type: functional, Caco-2
MDA-MB-231 [25] = test: Antiproliferative activity against human MDA-MB-231 cells preincubated for 4 hrs followed by 0.6 J/cm2 light irradiation for 10 mins and measured after 70 hrs by alamar blue assay; type: functional, cell-based; conditions: MDA-MB-231, light or radiation study
[26] = Selectivity ratio of IC50 for antiproliferative activity against human MOLT4 cells under dark condition to IC50 for antiproliferative activity against human MOLT4 cells under 0.6 J/cm2 light irradiation; type: functional, MOLT-4
[27] = Induction of supercoiled plasmid complementary DNA3 cleavage at 100 uM after 1 hr under LED light irradiation by gel electrophoresis method
[28] = Selectivity ratio of IC50 for antiproliferative activity against human A431 cells under dark condition to IC50 for antiproliferative activity against human A431 cells under 0.6 J/cm2 light irradiation; type: functional, A-431
[29] = Selectivity ratio of IC50 for antiproliferative activity against human PC3 cells under dark condition to IC50 for antiproliferative activity against human PC3 cells under 0.6 J/cm2 light irradiation; type: functional, PC-3
[30] = Antiproliferative activity against human GERL3.0 cells preincubated for 4 hrs followed by 0.6 J/cm2 light irradiation for 10 mins and measured after 70 hrs by alamar blue assay; type: functional, cell-based; conditions: light or radiation study
MOLT-4 [31] = test: Antiproliferative activity against human MOLT4 cells after 70 hrs by alamar blue assay; type: functional, cell-based; conditions: MOLT-4, 70 h
MOLT-4 [32] = test: Antiproliferative activity against human MOLT4 cells preincubated for 4 hrs followed by 0.6 J/cm2 light irradiation for 10 mins and measured after 70 hrs by alamar blue assay; type: functional, cell-based; conditions: MOLT-4, light or radiation study
PC-3 [33] = test: Antiproliferative activity against human PC3 cells preincubated for 4 hrs followed by 0.6 J/cm2 light irradiation for 10 mins and measured after 70 hrs by alamar blue assay; type: functional, cell-based; conditions: PC-3, light or radiation study
MIA PaCa-2 [34] = test: Potency index, ratio of 5-fluorouracil IC50 to compound IC50 for antiproliferative activity against human MIAPaCa2 cells; type: functional
A549 [35] = test: Antiproliferative activity against human A549 cells preincubated for 4 hrs followed by 0.6 J/cm2 light irradiation for 10 mins and measured after 70 hrs by alamar blue assay; type: functional, cell-based; conditions: A549, light or radiation study
A-431 [36] = test: Antiproliferative activity against human A431 cells preincubated for 4 hrs followed by 0.6 J/cm2 light irradiation for 10 mins and measured after 70 hrs by alamar blue assay; type: functional, cell-based; conditions: A-431, light or radiation study
[37] = Selectivity ratio of IC50 for antiproliferative activity against human MDA-MB-231 cells under dark condition to IC50 for antiproliferative activity against human MDA-MB-231 cells under 0.6 J/cm2 light irradiation; type: functional
Caco-2 [38] = test: Antiproliferative activity against human Caco2 cells after 70 hrs by alamar blue assay; type: functional, cell-based; conditions: Caco-2, 70 h
[39] = Antiproliferative activity against human GERL3.0 cells after 70 hrs by alamar blue assay; type: functional, cell-based
[40] = Selectivity ratio of IC50 for antiproliferative activity against human GERL3.0 cells under dark condition to IC50 for antiproliferative activity against human GERL3.0 cells under 0.6 J/cm2 light irradiation; type: functional
K562 = test: Antiproliferative activity against human K562 cells after 70 hrs by alamar blue assay; type: functional, cell-based; conditions: K562, 70 h
A549 [41] = test: Antiproliferative activity against human A549 cells after 70 hrs by alamar blue assay; type: functional, cell-based; conditions: A549, 70 h
A-431 [42] = test: Antiproliferative activity against human A431 cells after 70 hrs by alamar blue assay; type: functional, cell-based; conditions: A-431, 70 h

## COc1ccc(NS(=O)(=O)c2c(F)c(F)c(F)c(F)c2F)cc1F [BATABULIN]
HUVEC [1]
  pIC50: 4.79
HBL-100 [2]
  pIC50: 6.70
BEAS-2B [3]
  pIC50: 4.91
HUVEC [4]
  pIC50: 5.20
A498 [5]
  Activity: Active
[6]
  Ratio IC50: 35.8
[7]
  selectivity ratio: > 190
BEAS-2B [8]
  pIC50: < 4.40
MIA PaCa-2 [9]
  pIC50: 4.33
[10]
  selectivity ratio: > 3.2
HBL-100 [11]
  pIC50: < 4.40

## [O-][S+](CC#Cc1ccccc1C#CCO)c1ccccc1 (centres undefined)
HUVEC [1]
  pIC50: 4.18
Homo sapiens
  Activity: inactive
HBL-100 [2]
  pIC50: 4.72
A549 [12]
  Activity: inactive
BEAS-2B [3]
  pIC50: 4.53
HUVEC [4]
  pIC50: 4.10
A498 [5]
  Activity: inactive
[6]
  Ratio IC50: 7.8
[7]
  selectivity ratio: 1.8
BEAS-2B [8]
  pIC50: 4.09
MIA PaCa-2 [13]
  pIC50: 4.80
MIA PaCa-2 [9]
  pIC50: 3.91
[10]
  selectivity ratio: 2.8
HBL-100 [11]
  pIC50: 4.45

## [O-][S+](CC#Cc1ccccc1C#CCO)c1c(F)c(F)c(F)c(F)c1F (centres undefined)
Homo sapiens
  Activity: Active
A549 [12]
  Activity: Active
[14]
  Activity: inactive
MIA PaCa-2 [13]
  pIC50: 5.59

## [O-][S+](CC#Cc1cc2ccccc2cc1C#CCO)c1c(F)c(F)c(F)c(F)c1F (centres undefined)
Homo sapiens
  Activity: Active
A549 [12]
  Activity: Active
MIA PaCa-2 [13]
  pIC50: 5.33

## [O-][S+](CC#Cc1cccnc1C#CCOC1CCCCO1)c1c(F)c(F)c(F)c(F)c1F (centres undefined)
MIA PaCa-2 [13]
  pIC50: 6.00

## [O-][S+](CC#Cc1c(C#CCO)sc2ccccc12)c1c(F)c(F)c(F)c(F)c1F (centres undefined)
MIA PaCa-2 [13]
  pIC50: 5.66

## [O-][S+](CC#Cc1cccnc1C#CCO)c1c(F)c(F)c(F)c(F)c1F (centres undefined)
HUVEC [1]
  pIC50: 5.06
Homo sapiens
  Activity: Active
[15]
  Ratio IC50: 2
A498 [16]
  pIC50: 5.49
MIA PaCa-2 [17]
  pIC50: 6.70
A498 [18]
  pIC50: 5.47
HBL-100 [2]
  pIC50: 5.85
A549 [12]
  Activity: Active
MDA-MB-231 [19]
  pIC50: 5.92
[20]
  Ratio IC50: 1.1
[21]
  Ratio IC50: 3.7
Caco-2 [22]
  pIC50: 6.30
BEAS-2B [3]
  pIC50: 6.00
PC-3 [23]
  pIC50: 5.85
[24]
  Ratio IC50: 2
HUVEC [4]
  pIC50: 6.22
MDA-MB-231 [25]
  pIC50: 6.30
[26]
  Ratio IC50: 1.6
[27]
  Activity: Active
[28]
  Ratio IC50: 1.3
A498 [5]
  Activity: Active
[29]
  Ratio IC50: 2.5
[6]
  Ratio IC50: 25.3
[7]
  selectivity ratio: 19.3
[30]
  pIC50: 6.22
MOLT-4 [31]
  pIC50: 6.22
BEAS-2B [8]
  pIC50: 4.71
MOLT-4 [32]
  pIC50: 6.40
PC-3 [33]
  pIC50: 6.30
MIA PaCa-2 [34]
  Ratio IC50: 6
A549 [35]
  pIC50: 6.10
A-431 [36]
  pIC50: 5.96
[14]
  Activity: inactive
[37]
  Ratio IC50: 2.2
Caco-2 [38]
  pIC50: 6.00
MIA PaCa-2 [13]
  pIC50: 6.10
MIA PaCa-2 [9]
  pIC50: 4.69
[10]
  selectivity ratio: 18.6
[39]
  pIC50: 6.05
[40]
  Ratio IC50: 1.4
K562
  pIC50: 6.15
A549 [41]
  pIC50: 5.80
HBL-100 [11]
  pIC50: 4.57
A-431 [42]
  pIC50: 5.82

## [O-][S+](CC#Cc1ccccc1C#CCCCCO)c1c(F)c(F)c(F)c(F)c1F (centres undefined)
MIA PaCa-2 [13]
  pIC50: < 5.00

Source: ChEMBL document CHEMBL4196030, “Enediynes bearing polyfluoroaryl sulfoxide as new antiproliferative agents with dual targeting of microtubules and DNA” (Eur J Med Chem, 2018)
